Entries after “also recorded” stand apart in the source; their conditions may differ.
What was measured:
[1] = system: Rat Hypercalcemia Induced by PTHrp(1-34); assay: Rat hypercalcemia induced by PTHrp(1-34), oral administration; assay type: in vivo, Wistar rats
From the text: (§1) The active ingredient of the present invention normalizes the blood calcium concentration in rat hypercalcemia induced by PTHrp(1-34). PTHrp (parathyroid hormone-related protein) is a protein identified as the factor inducing hypercalcemia in humans. The fragment comprised of the 1 to 34th amino acid residues, that is, PTHrp(1-34), is the active type. The PTHrp(1-34) promotes bone resorption in vitro and induces hypercalcemia if administered to rats.
(§2) Using this model, the compound of the present invention was administered to Wistar rats, then PTHrp(1-34) was administered and the blood calcium concentration was measured after one hour after administration. […] That is, the compound of the present invention suppresses hypercalcemia induced by PTHrp(1-34), so is useful as a prophylactic or therapeutic agent for bone diseases.
(§3) To Wistar rats (5 weeks old, male, 90 to 110 g, 5 animals in each group), 40 mg/kg body weight of the compounds listed in Table 1 were administered orally. Four hours later, 5 nmole/kg of PTHrp(1-34) was intravenously injected. One hour after the administration of PTHrp(1-34), a blood sample was collected from each animal and the blood calcium concentration was measured by the octocresolphthalein complexone method.
Note that for reference, a similar evaluation was made of L-trans-epoxysuccinyl-L-leucineamide (e-guanide)-butane (E-64) Japanese Unexamined Patent Publication (Kokai) No. 63-284127 and the Z-Phe-Ala-CH2 F described in Japanese Examined Patent Publication (Kokoku) No. 4-1737.

[2] = system: Rat Hypercalcemia Induced by PTHrp(1-34); assay: Rat hypercalcemia induced by PTHrp(1-34), subcutaneous administration; assay type: in vivo, Wistar rats; conditions: 40 mg/kg subcutaneously at the back; 2 h later PTHrp(1-34) 5 nmole/kg i.v.; blood 1 h after PTHrp; n = 5; PTHrp-only group 11.28 ± 0.08, untreated 10.68 ± 0.09
From the text: as §1, §2
as §3, with “In the same way as Example 7, to” for “To”, “subcutaneously at the back. Two” for “orally. Four”

[3] = system: rats; assay: Acute toxicity LD50 after oral administration to rats; assay type: in vivo; conditions: in 20 hours
Description: The compound of the present invention is a low molecular weight dipeptide derivative, so the toxicity is low. For example, the acute toxicity LD50 of the compound 1 shown in Table 1 in 20 hours after oral administration to rats is over 1 g/kg.

[4] = 40 mg/kg orally; 4 h later PTHrp(1-34) 5 nmole/kg i.v.; blood 1 h after PTHrp; n = 5; PTHrp-only group 11.87 ± 0.14, untreated 11.42 ± 0.14

| SMILES | Ca conc. ± standard error (average blood calcium concentration) [1, 4] [mg/dL] | effect on rise in blood calcium concentration (in words) ([1]; oral administration, 40 mg/kg, vs group treated with PTHrp(1-34) only; 40 mg/kg) | effect on rise in blood calcium concentration (in words) ([1]; oral administration, 40 mg/kg, vs group treated with PTHrp(1-34) only) | Ca conc. ± standard error (average blood calcium concentration) [2] [mg/dL] | acute toxicity LD50 [3] |
| --- | --- | --- | --- | --- | --- |
| CC(NC(=O)C(Cc1ccccc1)NC(=O)OCc1ccccc1)C(=O)CF (stereo not drawn) [Z-Phe-Ala-CH2 F, 3-(N-benzyloxycarbonylphenylalanylamide)-1-fluoro-2-butanone] | 12.02 ± 0.20 | did not exhibit an activity; also recorded: did not exhibit any action of normalizing the calcium concentration |  |  |  |
| CC(C)C[C@H](NC(=O)[C@H]1O[C@@H]1C(=O)O)C(=O)NCCCCN=C(N)N (relative stereo) [Example E-64, L-trans-epoxysuccinyl-L-leucineamide (e-guanide)-butane] | 11.09 ± 0.14 |  | significantly suppressed the rise in the blood calcium concentration | 10.20 ± 0.09 |  |
| CCCCC(NC(=O)C(CC(C)C)NC(=O)OCc1ccccc1)C(=O)CF (stereo not drawn) [Z-Leu-Nle-CH2 F, 3-(N-benzyloxycarbonyl-leucylamide)-1-fluoro-2-heptanone] | 11.09 ± 0.14 |  |  |  | over 1 g/kg |
| CCCCC(NC(=O)C(CC(C)C)NC(C)=O)C(=O)CF (stereo not drawn) [Ac-Leu-Nle-CH2 F, 3-(N-acetyl-leucylamide)-1-fluoro-2-heptanone] | 10.49 ± 0.09 |  |  | 10.13 ± 0.11 |  |

From patent publication US5399743A, “Dipeptide derivative and prophylactic or therapeutic agent for bone diseases containing same as active ingredient” (Suntory Limited, priority 1992, dated 1995)
